{"source": "patent US20230255906A1", "about": "“Targeting Serpin B9 in Cancer” (The Brigham and Women`s Hospital, Inc., priority 2020, published 2023)"}
{"tested_on": "B16 melanoma cells", "test": "Caspase-3 activity assay (EnzChek Caspase-3 Assay Kit), caspase-3 induction in tumor cells; note: test concentration or dose not given here", "type": "cell-based, mouse", "conditions": "not given", "description": "(§1) The EnzChek® Caspase-3 Assay Kit was used to detect apoptosis by assaying for increases in caspase-3 activities. The basis for the assay was rhodamine 110 bis-(N-CBZ-L-aspartyl-L-glutamyl-L-valyl-L-aspartic acid amide) (Z-DEVD-R110). This substrate is a bisamide derivative of rhodamine 110 (R110) containing DEVD peptides covalently linked to each of R110's amino groups, thereby suppressing the dye's visible absorption and its fluorescence. Upon enzymatic cleavage, the nonfluorescent bisamide substrate is converted in a two-step process first to a fluorescent monoamide and then to an even more fluorescent R110.\n(§2) At least 1×10^6 cells of the lysate were used for each reaction. B16 cells were treated with compounds to induce apoptosis. A negative control was prepared by incubating cells in the absence of compounds. The cells were incubated with compounds for 24 hrs and washed in PBS. Each cell sample or control was resuspended in 50 μL of the 1×cell lysis buffer. Cells were lysed by incubating on ice for 30 minutes, and the lysed cells were centrifuged to pellet the cellular debris. 50 μL of the supernatant was transferred from each sample to individual microplate wells. 50 μL of the 1× cell lysis buffer was used as a no-enzyme control to determine the background fluorescence of the substrate. 50 μL of the 2×substrate working solution was added to each sample and control. The microplate was covered, and the samples were incubated at room temperature for approximately 30 minutes. The fluorescence was measured by a fluorescence microplate reader (excitation/emission ˜496/520 nm) using excitation and emission filters.\n(§3) The ability of this small molecule inhibitor to inhibit intracellular Sb9 was then evaluated. As a marker for cell penetration, the induction of caspase-3 activity in B16 melanoma cells as a surrogate marker for increased GrB activity was measured.\n(§4) The induction of caspase-3 activity in B16 melanoma cells as a surrogate marker for increased GrB activity was also measured for other small molecules (compounds of Formulas (V) and (VI) as described herein)."}
{"smiles": "CC(C)N(CCO)C(=O)c1ccc2oc(-c3ccc(C(F)(F)F)cc3)nc2c1", "note": "[N-(2-hydroxyethyl)-N-isopropyl-2-[4-(trifluoromethyl)phenyl]-1,3-benzoxazole-5-carboxamide]", "Ratio of caspase-3 activity to Formula (III)": 0.1324}
{"smiles": "CCN(CCO)C(=O)c1ccc2oc(-c3ccc(C(F)(F)F)cc3)nc2c1", "note": "[N-ethyl-N-(2-hydroxyethyl)-2-[4-(trifluoromethyl)phenyl]-1,3-benzoxazole-5-carboxamide]", "Ratio of caspase-3 activity to Formula (III)": 0.1437}
{"smiles": "CCN(CCN(C)C)C(=O)c1cnc2c(c1)nc(-c1ccccc1Cl)n2C", "note": "[2-(2-chlorophenyl)-N-[2-(dimethylamino)ethyl]-N-ethyl-3-methyl-3H-imidazo[4,5-b]pyridine-6-carboxamide]", "Ratio of caspase-3 activity to Formula (III)": 1.106}
{"smiles": "O=C(c1ccc2oc(-c3ccc(C(F)(F)F)cc3)nc2c1)N1CCOCC1", "note": "[5-(4-morpholinylcarbonyl)-2-[4-(trifluoromethyl)phenyl]-1,3-benzoxazole]", "Ratio of caspase-3 activity to Formula (III)": 0.1317}
{"smiles": "CC(NC(=O)c1ccc2oc(-c3cccc(F)c3)nc2c1)c1ncn[nH]1", "note": "(centres unmarked) [2-(3-fluorophenyl)-N-[1-(1H-1,2,4-triazol-5-yl)ethyl]-1,3-benzoxazole-5-carboxamide]", "Ratio of caspase-3 activity to Formula (III)": 0.1158}
{"smiles": "COc1cccc(-c2nc3ccc(C(=O)N(C)Cc4c(C)n[nH]c4C)cc3o2)c1", "note": "[N-[(3,5-dimethyl-1H-pyrazol-4-yl)methyl]-2-(3-methoxyphenyl)-N-methyl-1,3-benzoxazole-6-carboxamide]", "Ratio of caspase-3 activity to Formula (III)": 0.1324}
{"smiles": "CN(Cc1ccncn1)C(=O)c1ccc2oc(-c3ccc(C(F)(F)F)cc3)nc2c1", "note": "[N-methyl-N-(4-pyrimidinylmethyl)-2-[4-(trifluoromethyl)phenyl]-1,3-benzoxazole-5-carboxamide]", "Ratio of caspase-3 activity to Formula (III)": 0.1443}
{"smiles": "CC(O)CNC(=O)c1ccc2oc(-c3ccc(C(F)(F)F)cc3)nc2c1", "note": "(centres unmarked) [N-(2-hydroxypropyl)-2-[4-(trifluoromethyl)phenyl]-1,3-benzoxazole-5-carboxamide]", "Ratio of caspase-3 activity to Formula (III)": 0.0922}
{"smiles": "CCN(CC)C(=O)C1CCCN(C(=O)c2ccc3nc(-c4cccc(OC)c4)oc3c2)C1", "note": "(centres unmarked) [N,N-diethyl-1-{[2-(3-methoxyphenyl)-1,3-benzoxazol-6-yl]carbonyl}-3-piperidinecarboxamide]", "Ratio of caspase-3 activity to Formula (III)": 0.1463}
{"smiles": "CN(Cc1ccn[nH]1)C(=O)c1ccc2oc(-c3ccc(C(F)(F)F)cc3)nc2c1", "note": "[N-methyl-N-(1H-pyrazol-5-ylmethyl)-2-[4-(trifluoromethyl)phenyl]-1,3-benzoxazole-5-carboxamide]", "Ratio of caspase-3 activity to Formula (III)": 0.1414}
{"smiles": "CO[C@H]1CN(C)C[C@@H]1NC(=O)c1ccc2oc(-c3cccc(F)c3)nc2c1", "note": "(relative stereo) [2-(3-fluorophenyl)-N-[(3S*,4S*)-4-methoxy-1-methylpyrrolidin-3-yl]-1,3-benzoxazole-5-carboxamide]", "Ratio of caspase-3 activity to Formula (III)": 0.08936}
{"smiles": "Cn1cc(CNC(=O)c2ccc3oc(-c4cccc(F)c4)nc3c2)cn1", "note": "[2-(3-fluorophenyl)-N-[(1-methyl-1H-pyrazol-4-yl)methyl]-1,3-benzoxazole-5-carboxamide]", "Ratio of caspase-3 activity to Formula (III)": 0.1005}
{"smiles": "COc1cccc(-c2nc3ccc(C(=O)N4CCC(N(C)C)C4)cc3o2)c1", "note": "(centres unmarked) [1-{[2-(3-methoxyphenyl)-1,3-benzoxazol-6-yl]carbonyl}-N,N-dimethyl-3-pyrrolidinamine]", "Ratio of caspase-3 activity to Formula (III)": 0.9908}
{"smiles": "COc1cccc(-c2nc3ccc(C(=O)N(CC4CC4)CC4CCCO4)cc3o2)c1", "note": "(centres unmarked) [N-(cyclopropylmethyl)-2-(3-methoxyphenyl)-N-(tetrahydro-2-furanylmethyl)-1,3-benzoxazole-6-carboxamide]", "Ratio of caspase-3 activity to Formula (III)": 0.1369}
{"smiles": "O=C(c1ccc2oc(-c3cccc(F)c3)nc2c1)N1CCOc2ccccc2C1", "note": "[4-{[2-(3-fluorophenyl)-1,3-benzoxazol-5-yl]carbonyl}-2,3,4,5-tetrahydro-1,4-benzoxazepine]", "Ratio of caspase-3 activity to Formula (III)": 0.1627}
{"smiles": "COc1cccc(-c2nc3ccc(C(=O)N(C)Cc4cc(C)on4)cc3o2)c1", "note": "[2-(3-methoxyphenyl)-N-methyl-N-[(5-methylisoxazol-3-yl)methyl]-1,3-benzoxazole-6-carboxamide]", "Ratio of caspase-3 activity to Formula (III)": 0.2402}
{"smiles": "CN(CCN1CCOCC1)C(=O)c1ccc2oc(-c3ccc(C(F)(F)F)cc3)nc2c1", "note": "[N-methyl-N-[2-(4-morpholinyl)ethyl]-2-[4-(trifluoromethyl)phenyl]-1,3-benzoxazole-5-carboxamide]", "Ratio of caspase-3 activity to Formula (III)": 0.1327}
{"smiles": "O=C(NC1CCC1)c1ccc2oc(-c3ccc(C(F)(F)F)cc3)nc2c1", "note": "[N-cyclobutyl-2-[4-(trifluoromethyl)phenyl]-1,3-benzoxazole-5-carboxamide]", "Ratio of caspase-3 activity to Formula (III)": 1.28}
{"smiles": "O=C(c1ccc2nc(-c3ccccc3)oc2c1)N1CCC(O)CC1", "note": "[1-(2-phenyl-1,3-benzoxazole-6-carbonyl)piperidin-4-ol]", "Ratio of caspase-3 activity to Formula (III)": 1.327}
{"tested_on": "B16 melanoma cells", "test": "Caspase-3 activity assay (EnzChek Caspase-3 Assay Kit), caspase-3 induction in tumor cells; note: test concentration or dose not given here", "type": "cell-based, mouse", "conditions": "relative to compound of Formula (III)", "description": "as §1, §2, §3, §4", "units": {"Caspase-3 induction, Normalized to Formula (III) (%)": "%"}}
{"smiles": "Cc1cc(O)c(O)cc1C(=O)NCC(C)C", "note": "[4,5-dihydroxy-2-methyl-N-(2-methylpropyl)benzamide]", "Caspase-3 induction, Normalized to Formula (III) (%)": "−27.9096"}
{"smiles": "COCCCNC(=O)c1cc2c(cc1O)OCO2", "note": "[6-hydroxy-N-(3-methoxypropyl)-2H-1,3-benzodioxole-5-carboxamide]", "Caspase-3 induction, Normalized to Formula (III) (%)": "−41.8942"}
{"smiles": "O=C(c1ccc2nc(C(F)(F)C(F)(F)F)oc2c1)N1CCCC1", "note": "[2-(1,1,2,2,2-pentafluoroethyl)-6-(pyrrolidine-1-carbonyl)-1,3-benzoxazole]", "Caspase-3 induction, Normalized to Formula (III) (%)": "−38.2832"}
{"smiles": "COc1cc(Br)c(C(=O)NC2CCCC2)cc1OC", "note": "[2-bromo-N-cyclopentyl-4,5-dimethoxybenzamide]", "Caspase-3 induction, Normalized to Formula (III) (%)": "−49.8913"}
{"smiles": "COCCCNC(=O)c1cc(OC)c(O)c(OC)c1", "note": "[4-hydroxy-3,5-dimethoxy-N-(3-methoxypropyl)benzamide]", "Caspase-3 induction, Normalized to Formula (III) (%)": "−23.5938"}
{"smiles": "COc1cc(C(=O)NCC(C)C)cc(OC)c1O", "note": "[4-hydroxy-3,5-dimethoxy-N-(2-methylpropyl)benzamide]", "Caspase-3 induction, Normalized to Formula (III) (%)": "−25.2896"}
{"smiles": "COCCCNC(=O)c1ccc2nc(S)oc2c1", "note": "[N-(3-methoxypropyl)-2-sulfanyl-1,3-benzoxazole-6-carboxamide]", "Caspase-3 induction, Normalized to Formula (III) (%)": 15.2459}
{"smiles": "COCCCNC(=O)c1ccc2nc(C3CCCO3)oc2c1", "note": "(centres unmarked) [N-(3-methoxypropyl)-2-(oxolan-2-yl)-1,3-benzoxazole-6-carboxamide]", "Caspase-3 induction, Normalized to Formula (III) (%)": "−69.878"}
{"smiles": "CN(C)c1nc2c(C(=O)NC3CCCC3)cccc2o1", "note": "[N-cyclopentyl-2-(dimethylamino)-1,3-benzoxazole-4-carboxamide]", "Caspase-3 induction, Normalized to Formula (III) (%)": "−20.9929"}
{"smiles": "CCOc1ccc(C(=O)NCC(C)C)cc1O", "note": "[4-ethoxy-3-hydroxy-N-(2-methylpropyl)benzamide]", "Caspase-3 induction, Normalized to Formula (III) (%)": "−3.559"}
{"smiles": "O=C(c1ccc2nc(S)oc2c1)N1CCCC1", "note": "[6-(pyrrolidine-1-carbonyl)-1,3-benzoxazole-2-thiol]", "Caspase-3 induction, Normalized to Formula (III) (%)": "−30.7254"}
{"smiles": "COCCCNC(=O)c1cc(O)c(O)cc1C", "note": "[4,5-dihydroxy-N-(3-methoxypropyl)-2-methylbenzamide]", "Caspase-3 induction, Normalized to Formula (III) (%)": "−55.7377"}
{"smiles": "CN(C)c1nc2cccc(C(=O)N3CCCC3)c2o1", "note": "[N,N-dimethyl-7-(pyrrolidine-1-carbonyl)-1,3-benzoxazol-2-amine]", "Caspase-3 induction, Normalized to Formula (III) (%)": "−21.0312"}
{"smiles": "COc1cc(C(=O)NCC2CCOCC2)ccc1OCCC(C)C", "note": "[3-methoxy-4-(3-methylbutoxy)-N-[(oxan-4-yl)methyl]benzamide]", "Caspase-3 induction, Normalized to Formula (III) (%)": "−31.8318"}
{"smiles": "CCN(C)C(=O)c1ccc2oc(=O)[nH]c2c1", "note": "[N-ethyl-N-methyl-2-oxo-2,3-dihydro-1,3-benzoxazole-5-carboxamide]", "Caspase-3 induction, Normalized to Formula (III) (%)": "−21.7056"}
{"smiles": "CCN(C)C(=O)c1cc(OC)c(O)c(OC)c1", "note": "[N-ethyl-4-hydroxy-3,5-dimethoxy-N-methylbenzamide]", "Caspase-3 induction, Normalized to Formula (III) (%)": "−34.6356"}
{"smiles": "O=C(c1cc2c(cc1O)OCO2)N1CCCC1", "note": "[6-(pyrrolidine-1-carbonyl)-2H-1,3-benzodioxol-5-ol]", "Caspase-3 induction, Normalized to Formula (III) (%)": "−35.7785"}
{"smiles": "CCOc1ccc(C(=O)NCc2ccccc2)cc1O", "note": "[N-benzyl-4-ethoxy-3-hydroxybenzamide]", "Caspase-3 induction, Normalized to Formula (III) (%)": 19.0685}
{"smiles": "COc1cc(C(=O)NCC2CCOCC2)ccc1OC(C)C", "note": "[3-methoxy-N-[(oxan-4-yl)methyl]-4-(propan-2-yloxy)benzamide]", "Caspase-3 induction, Normalized to Formula (III) (%)": "−66.2788"}
